From paper PMC9234961 (Journal of Medicinal Chemistry, 2022)
pIC50: −log10 of the molar value. Values after ≈ are worked out from the molar mass of the structure shown. Values joined by “and” are separate entries in the source; they are usually repeats but may differ in a detail not shown here. Identical values can stand only once. Like-named read-outs stand apart in the source and are kept apart here.

Assays:
[1] = logD7.4 assay (Chrom log D method); assay type: physicochemical; settings: pH 7.4, read-out: Measured logD7.4
Protocol: Calibration, validation and in-house compounds were prepared at 1mM in 10% DMSO / 90% Trizma solution (100mM Trizma in 75/25 methanol/water). 3 µL standard injections (with needle wash) of all calibration, validation and in-house samples were made onto a Phenomenex Luna C8 column (3µm, 100 x 4.6 mm, 100A, Phenomenex, Torrence, USA). Chromatographic separation at 30°C was carried out using […]
2 mL/min. The gradient was held at 0:100 water:organic for 0.8 minutes, then returned to the starting conditions of 95:5 water:organic for 0.2 minutes. The column was re-equilibrated for 5 minutes at the […]

[2] = Microsomal clearance assay (MLM); assay type: in vitro ADME; settings: female, CD1, pH 7.4; mouse liver microsomes, 1 μM compound
Protocol: 6. Supplementary experimental: in vitro DMPK assays
6.1 Microsomal clearance assay
Microsomal clearance was determined in female CD1 mice, female Sprague–Dawley rats, and mixed gender human liver microsomes obtained from BioIVT (Peterborough, U.K.) following incubation of 1 μM compound at 37 °C in 0.5 mg/mL microsomal protein, 3 mmol/L MgCl2, 1 mmol/L NADPH, 2.5 mmol/L and 10 mmol/L phosphate buffer (pH 7.4) (all purchased from Sigma-Aldrich, Gillingham, U.K). Reactions were started by addition of the cofactors following 10 min preincubation of microsomes with test compound and were terminated at −1, 0, 5, 10, 15, and 30 min with three volumes of ice-cold methanol containing internal standard. Samples were centrifuged at 2800g for 30 min at 4 °C and the supernatants analyzed.
Control incubations were prepared as above with omission of cofactors. Compound measurements were […]
separation with a 3 min gradient of 0.1% formic acid in methanol on a Kinetex C18, 50 × 2.1 mm 2.6 μm UPLC column (Phenomenex, Macclesfield, UK). […]

human BCL6 BTB domain [3] = target: T1, human BCL6 BTB domain (Homo sapiens, UniProt P41182); test: biochemical
Protocol: (§1) Assays were performed in a 384-well black Proxiplate (Perkin Elmer) containing 1 nM Trx-6xHis-BCL6 (in
(§2) anti-6xHis-Terbium cryptate (CisBio Bioassays, France), in assay buffer (25 mM Hepes pH8, 100 mM NaCl,
(§3) 0.05% Tween20, 0.5 mM TCEP, 0.05% bovine serum albumin). Test compounds in DMSO or DMSO alone
(§4) were added to the wells using an ECHO550 acoustic dispenser (Labcyte Inc) to give the appropriate test
(§5) concentration in 0.7% v/v DMSO final. After 2 hours incubation at room temperature the plate was read
(§6) The % inhibition at each concentration was calculated by normalising FRET ratio to the
(§7) appropriate high (DMSO with all reagents) and low (DMSO without BCL6) controls. IC50 values were
(§8) determined using GraphPad Prism 6.0 or Dotmatics (Bishops Stortford, UK) software by fitting the
(§9) normalised data to a sigmoidal four-parameter logistic fit equation.

[4] = target: endogenous BCL6 in OCI-Ly1 cells (Homo sapiens, UniProt P41182); test: cell-based; settings: for degradation of BCL6 (in words): OCI-Ly1 MSD assay; for MSD degrader assay [OCI-Ly1] Dmax: mean maximal degradation of BCL6; for MSD degrader assay [OCI-LY1] pDC50 mean: mean of replicates
human BCL6 BTB domain [5] = target: T1, human BCL6 BTB domain; settings: for BCL6 TR-FRET pIC50 mean: mean of replicates
Protocol: as §1, §2, §3, §4, §5, §6, §7, §8, §9

NMR solubility assay = assay type: physicochemical; settings: kinetic solubility by NMR in HEPES buffer at pH 8, 4% DMSO; read-out: Aq. Sol.
Protocol: 4. Supplementary experimental: physicochemical assays
0.5 mM TCEP, 10% D2O) was pipetted into the same well and mixed by up-down pipetting 3 times to create […]
It was then separated by centrifugation (1000 rpm
The plate was then sealed and incubated at room temperature for 20 hours, […]
165 µL of the supernatant was transferred to a 3 mm NMR tube (Bruker, Part No. Z112272) using liquid handler SamplePro Tube SJ S (Bruker). The concentration of the solubilized compound in solubility sample is measured by quantitative 1H-NMR using a single external standard (200 µM caffeine (Sigma, C1778) in PBS (pH 7.4) with 1% DMSO-d6).
The detail of the NMR method is as following: NMR data was collected on a Bruker Avance Neo 600 spectrometer equipped with a 5 mm TCI-CryoProbe. The 1H spectrum was referenced to the internal deuterated solvent. The operating frequency for 1H was 600 MHz. All NMR data were acquired at the […]
1H-NMR spectrum was acquired using a Bruker standard 1D lc1pngppsf2 pulse sequence with 32 scans.
The sweep width was 6.2 ppm with O1P set to 8.8 ppm, and the FID contained 16k time-domain data points. Relaxation delay was set to 20 sec. Water signal was suppressed. […]

[6] = reversed-phase HPLC on Phenomenex Luna C8 column
[7] = BCL6 TR-FRET IC50 individual replicates, single replicate values
[8] = OCI-Ly1, read-out: MSD degrader assay [OCI-LY1] Dmax individual replicates, single replicate values
[9] = read-out: MSD degrader assay [OCI-LY1] DC50 individual replicates, single replicate values
[10] = read-out: MSD degrader assay [OCI-Ly1] DC50, geometric mean, OCI-Ly1 cells, 2 h incubation
[11] = read-out: BCL6 TR-FRET IC50, geometric mean, BCOR-AF633 peptide, 2 h incubation
[12] = OCI-Ly1, read-out: MSD degrader assay [OCI-Ly1] Dmax, mean maximal degradation of BCL6, OCI-Ly1 cells, 2 h
[13] = read-out: BCL6 TR-FRET IC50 individual replicates, single replicate values

Structure (SMILES) | chromatographic logD [1, 6] | microsomal CLint at 0.5 h, 1 µM [2] | pIC50 (human BCL6 BTB domain [3]; [7]) | Dmax [4, 8] | degradation of BCL6 (in words) [4] | MSD degrader assay [OCI-Ly1] Dmax ([4]; OCI-Ly1 cells, 2 h) | MSD degrader assay [OCI-LY1] pDC50 mean [4] | DC50 [4, 9] | DC50 [4, 10] | MSD degrader assay [OCI-LY1] Dmax individual replicates ([4]; single replicate values) | BCL6 TR-FRET pIC50 mean (human BCL6 BTB domain [5]) | pIC50 (human BCL6 BTB domain [5]; [11]) | solubility kinetic at 20 h (NMR solubility assay) | Dmax [4, 12] | pIC50 (human BCL6 BTB domain [5]; [13]) | chromatographic logD [1] | pIC50 (human BCL6 BTB domain [3]; BCL6 TR-FRET pIC50 mean, mean of replicates)
CC(=O)N[C@@H]1C[C@H](C)CN(c2ncc(Cl)c(Nc3ccc4c(c3)c3c(c(=O)n4C)OCC(F)(F)[C@H](C4CC4)N3)n2)C1 [10a, N-((3R,5S)-1-(5-Chloro-4-(((S)-2-cyclopropyl-3,3-difluoro-7-methyl-6-oxo-1,2,3,4,6,7-hexahydro-[1,4]oxazepino[2,3-c]quinolin-10-yl)amino)pyrimidin-2-yl)-5-methylpiperidin-3-yl)acetamide] | 2.8 | 138 µL/min/mg | 8.47 and 8.36 and 8.49 | 72.4% | potently degrading isomer | 67% | 8.6565 | 1.7 nM and 2.8 nM | 2.2 nM | 61.63% | 8.4394 | 8.44 | 15 µM (≈ 8.82 µg/mL) |  |  |  | 
CC(=O)N[C@H]1C[C@@H](C)CN(c2ncc(Cl)c(Nc3ccc4c(c3)c3c(c(=O)n4C)OCC(F)(F)[C@H](C4CC4)N3)n2)C1 [10b, N-((3S,5R)-1-(5-Chloro-4-(((S)-2-cyclopropyl-3,3-difluoro-7-methyl-6-oxo-1,2,3,4,6,7-hexahydro-[1,4]oxazepino[2,3-c]quinolin-10-yl)amino)pyrimidin-2-yl)-5-methylpiperidin-3-yl)acetamide] | 2.8 | 134 µL/min/mg | 8.46 and 8.59 and 8.60 | < 30% | nondegrading isomer | > 30% |  | > 2000 nM | > 2000 nM |  | 8.5388 | 8.54 | 15 µM (≈ 8.82 µg/mL) | < 30% | 8.52 |  | 
C[C@H]1C[C@@H](N(C)C)CN(c2ncc(Cl)c(Nc3ccc4c(c3)c3c(c(=O)n4C)OCC(F)(F)[C@H](C4CC4)N3)n2)C1 [11a, (S)-10-((5-Chloro-2-((3R,5S)-3-(dimethylamino)-5-methylpiperidin-1-yl)pyrimidin-4-yl)amino)-2-cyclopropyl-3,3-difluoro-7-methyl-1,2,3,4-tetrahydro-[1,4]oxazepino[2,3-c]quinolin-6(7H)-one] | 3.3 | 876 µL/min/mg | 8.41 and 8.52 | 53.6% | potently degrading isomer | 56% | 8.0099 | 8.3 nM and 8.9 nM and 12.7 nM | 9.8 nM | 60.7% and 54.9% | 8.4757 | 8.48 | 60 µM (≈ 34.4 µg/mL) |  | 8.49 and 8.48 |  | 
C[C@@H]1C[C@H](N(C)C)CN(c2ncc(Cl)c(Nc3ccc4c(c3)c3c(c(=O)n4C)OCC(F)(F)[C@H](C4CC4)N3)n2)C1 [11b, (S)-10-((5-Chloro-2-((3S,5R)-3-(dimethylamino)-5-methylpiperidin-1-yl)pyrimidin-4-yl)amino)-2-cyclopropyl-3,3-difluoro-7-methyl-1,2,3,4-tetrahydro-[1,4]oxazepino[2,3-c]quinolin-6(7H)-one] | 3.3 | 681 µL/min/mg | 8.48 and 8.52 and 8.32 | < 30% | nondegrading isomer | > 30% |  | > 2000 nM | > 2000 nM |  | 8.4399 | 8.44 | 58 µM (≈ 33.3 µg/mL) | < 30% |  |  | 
Cn1c(=O)c2c(c3cc(Nc4nc(N5CCC[C@@H](O)C5)ncc4Cl)ccc31)N[C@@H](C1CC1)C(F)(F)CO2 [14a, (S)-10-((5-chloro-2-((R)-3-hydroxypiperidin-1-yl)pyrimidin-4-yl)amino)-2-cyclopropyl-3,3-difluoro-7-methyl-1,2,3,4-tetrahydro-[1,4]oxazepino[2,3-c]quinolin-6(7H)-one] |  | 88 µL/min/mg | 8.77 and 8.62 | 34.9% |  | 35% |  | > 2000 nM | > 2000 nM |  |  | 8.52 | 25 µM (≈ 13.3 µg/mL) | 34.9% | 8.51 | 2.7 | 8.61
C[C@H]1CCCN(c2ncc(Cl)c(Nc3ccc4c(c3)c3c(c(=O)n4C)OCC(F)(F)[C@H](C4CC4)N3)n2)C1 [15a, (S)-10-((5-chloro-2-((S)-3-methylpiperidin-1-yl)pyrimidin-4-yl)amino)-2-cyclopropyl-3,3-difluoro-7-methyl-1,2,3,4-tetrahydro-[1,4]oxazepino[2,3-c]quinolin-6(7H)-one] | 4.9 | 568 µL/min/mg | 7.32 and 7.53 and 7.46 | 88.4% | degraders of BCL6 | 86% | 8.1987 | 16 nM and 1.7 nM and 9.3 nM | 6.3 nM | 83.3% and 85.0% | 7.4377 | 7.44 | 0 µM | 85.5% |  |  | 
C[C@@H]1CCCN(c2ncc(Cl)c(Nc3ccc4c(c3)c3c(c(=O)n4C)OCC(F)(F)[C@H](C4CC4)N3)n2)C1 [15b, (S)-10-((5-Chloro-2-((R)-3-methylpiperidin-1-yl)pyrimidin-4-yl)amino)-2-cyclopropyl-3,3-difluoro-7-methyl-1,2,3,4-tetrahydro-[1,4]oxazepino[2,3-c]quinolin-6(7H)-one] | 5 | 204 µL/min/mg | 7.56 and 7.65 | 73.4% | degraders of BCL6 | 72% | 7.4874 | 19.4 nM and 39.6 nM and 44.8 nM | 32.6 nM | 70.6% and 72.2% | 7.6089 | 7.61 | 0 µM | 72.1% | 7.62 |  | 
